In PubChem BioAssay AID270 (DTP/NCI, 2004):
Values joined by “and” are separate entries in the source; they are usually repeats but may differ in a detail not shown here. Equal values may be shown once. Records with an inconclusive call do not appear.

System: BDF1 mice, s.c. Lewis lung carcinoma, T/C %
Test: NCI In Vivo Anticancer Drug Screen. Data for tumor model Lewis Lung Carcinoma (subcutaneous) in B6D2F1 (BDF1) mice
Outline: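 Readout: survival or tumor size, expressed as treated (T) over vehicle control (C). Transplantable tumor implanted in mice; compound given to the treated group.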

[1] = endpoint: mean tumor weight, dose: 125.0 mg/kg/injection, schedule: Q01DX011 (ip), vehicle: saline, higher = larger tumour
[2] = endpoint: mean tumor weight, dose: 250.0 mg/kg/injection, schedule: Q01DX011 (ip), vehicle: saline, higher = larger tumour
[3] = endpoint: mean tumor weight, dose: 133.0 mg/kg/injection, schedule: Q01DX011 (ip), vehicle: other, higher = larger tumour
[4] = endpoint: mean tumor weight, dose: 300.0 mg/kg/injection, schedule: Q01DX011 (ip), vehicle: other, higher = larger tumour

## CCCNc1ncnc2c1cnn2C
endpoint: mean tumor weight, dose: 3.12 mg/kg/injection, schedule: Q01DX011 (ip), vehicle: saline, higher = larger tumour
  T/C: 95 % of control
endpoint: mean tumor weight, dose: 6.25 mg/kg/injection, schedule: Q01DX011 (ip), vehicle: saline, higher = larger tumour
  T/C: 89 % of control
endpoint: mean tumor weight, dose: 12.5 mg/kg/injection, schedule: Q01DX011 (ip), vehicle: saline, higher = larger tumour
  T/C: 65 % of control
endpoint: mean tumor weight, dose: 25.0 mg/kg/injection, schedule: Q01DX011 (ip), vehicle: saline, higher = larger tumour
  T/C: 28 % of control

## CCC(c1ccc(O)cc1)C(CC)c1ccc(OC)cc1 (stereo unspecified)
endpoint: mean tumor weight, dose: 4.0 mg/kg/injection, schedule: Q01DX011 (sc), vehicle: steriod suspending solution, higher = larger tumour
  T/C: 60 % of control
endpoint: mean tumor weight, dose: 8.0 mg/kg/injection, schedule: Q01DX011 (sc), vehicle: steriod suspending solution, higher = larger tumour
  T/C: 36 % of control
endpoint: mean tumor weight, dose: 16.0 mg/kg/injection, schedule: Q01DX011 (sc), vehicle: steriod suspending solution, higher = larger tumour
  T/C: 33 % of control
endpoint: mean tumor weight, dose: 31.3 mg/kg/injection, schedule: Q01DX011 (ip), vehicle: saline, higher = larger tumour
  T/C: 23 % of control
endpoint: mean tumor weight, dose: 32.0 mg/kg/injection, schedule: Q01DX011 (sc), vehicle: steriod suspending solution, higher = larger tumour
  T/C: 16 % of control
endpoint: mean tumor weight, dose: 62.5 mg/kg/injection, schedule: Q01DX011 (ip), vehicle: saline, higher = larger tumour
  T/C: 21 % of control
[1]
  T/C: 16 % of control
[2]
  T/C: 13 % of control

## Cc1cccc(C)c1[N+](=O)[O-]
[3]
  T/C: 88 % of control
endpoint: mean tumor weight, dose: 200.0 mg/kg/injection, schedule: Q01DX011 (ip), vehicle: other, higher = larger tumour
  T/C: 66 % of control
[4]
  T/C: 67 % of control

## CCCCCCCCCCCCCCCCC(C(=O)O)C(O)(CC(=O)O)C(=O)O (stereo unspecified)
endpoint: mean tumor weight, dose: 22.0 mg/kg/injection, schedule: Q01DX011 (ip), vehicle: carboxymethylcellulose (CMC), higher = larger tumour
  T/C: 64 % of control
endpoint: mean tumor weight, dose: 35.0 mg/kg/injection, schedule: Q01DX011 (ip), vehicle: carboxymethylcellulose (CMC), higher = larger tumour
  T/C: 68 % of control
endpoint: mean tumor weight, dose: 50.0 mg/kg/injection, schedule: Q01DX011 (ip), vehicle: carboxymethylcellulose (CMC), higher = larger tumour
  T/C: 46 % of control

## O=NN(CCCl)C(=O)Nc1ncc([N+](=O)[O-])s1
endpoint: median survival time, dose: 154.0 mg/kg/injection, schedule: Q01DX001 (ip), vehicle: other, higher = longer survival
  T/C: 112 % of control

## Clc1[nH]nc2ccccc12
[1]
  T/C: 80 % of control and 85 % of control
[2]
  T/C: 45 % of control and 67 % of control

## CCCCCCCCCCCCSC(=N)N
endpoint: median survival time, dose: 6.25 mg/kg/injection, schedule: Q01DX009 (ip), vehicle: saline with Tween-80, higher = longer survival
  T/C: 107 % of control
endpoint: median survival time, dose: 12.5 mg/kg/injection, schedule: Q01DX009 (ip), vehicle: saline with Tween-80, higher = longer survival
  T/C: 106 % of control
endpoint: median survival time, dose: 25.0 mg/kg/injection, schedule: Q01DX009 (ip), vehicle: saline with Tween-80, higher = longer survival
  T/C: 104 % of control

## O=C(O)C1CCCCN1 (stereo unspecified)
[3]
  T/C: 110 % of control
[4]
  T/C: 123 % of control
endpoint: mean tumor weight, dose: 450.0 mg/kg/injection, schedule: Q01DX011 (ip), vehicle: other, higher = larger tumour
  T/C: 116 % of control

## COC12C(COC(=O)NCCO)C3=C(C(=O)C(C)=C(N)C3=O)N1CC1NC12 (stereo unspecified)
endpoint: median survival time, dose: 3.13 mg/kg/injection, schedule: Q01DX009 (ip), vehicle: Klucel (hydroxypropylcellulose) (HPC), higher = longer survival
  T/C: 94 % of control
endpoint: median survival time, dose: 6.25 mg/kg/injection, schedule: Q01DX009 (ip), vehicle: Klucel (hydroxypropylcellulose) (HPC), higher = longer survival
  T/C: 92 % of control
endpoint: median survival time, dose: 25.0 mg/kg/injection, schedule: Q01DX009 (ip), vehicle: Klucel (hydroxypropylcellulose) (HPC), higher = longer survival
  T/C: 94 % of control

## CN(Cc1cnc2nc(N)nc(N)c2n1)c1c(Cl)cc(C(=O)NC(CCC(=O)O)C(=O)O)cc1Cl (stereo unspecified)
endpoint: median survival time, dose: 90.0 mg/kg/injection, schedule: Q01DX009 (ip), vehicle: sodium bicarbonate, higher = longer survival
  T/C: 110 % of control
endpoint: median survival time, dose: 560.0 mg/kg/injection, schedule: Q04DX003 (ip), vehicle: sodium bicarbonate, higher = longer survival
  T/C: 112 % of control
endpoint: median survival time, dose: 626.0 mg/kg/injection, schedule: Q01DX001 (ip), vehicle: sodium bicarbonate, higher = longer survival
  T/C: 116 % of control
endpoint: median survival time, dose: 840.0 mg/kg/injection, schedule: Q04DX003 (ip), vehicle: sodium bicarbonate, higher = longer survival
  T/C: 108 % of control
endpoint: median survival time, dose: 933.0 mg/kg/injection, schedule: Q01DX001 (ip), vehicle: sodium bicarbonate, higher = longer survival
  T/C: 92 % of control
endpoint: median survival time, dose: 1400.0 mg/kg/injection, schedule: Q01DX001 (ip), vehicle: sodium bicarbonate, higher = longer survival
  T/C: 100 % of control

## Cc1ccc(N=NN(C)C)cc1
endpoint: mean tumor weight, dose: 15.0 mg/kg/injection, schedule: Q01DX011 (ip), vehicle: other, higher = larger tumour
  T/C: 67 % of control
endpoint: mean tumor weight, dose: 60.0 mg/kg/injection, schedule: Q01DX011 (ip), vehicle: other, higher = larger tumour
  T/C: 57 % of control

## O=C(O)CCc1c[nH]c2ccc(N(CCCl)CCCl)cc12
endpoint: mean tumor weight, dose: 0.7 mg/kg/injection, schedule: Q01DX011 (ip), vehicle: carboxymethylcellulose (CMC), higher = larger tumour
  T/C: 74 % of control
endpoint: mean tumor weight, dose: 1.5 mg/kg/injection, schedule: Q01DX011 (ip), vehicle: carboxymethylcellulose (CMC), higher = larger tumour
  T/C: 79 % of control
endpoint: mean tumor weight, dose: 3.0 mg/kg/injection, schedule: Q01DX011 (ip), vehicle: carboxymethylcellulose (CMC), higher = larger tumour
  T/C: 51 % of control
